Test results taken from patent US20060216699A1, “Peptides for the detection of HIV-1 group O” (priority 1998, published 2006).

Assays:
[1] = tested on: anti-HIV-1 group O antibodies present in human serum; assay: Antibody capture format: peptide on solid phase, bound antibody detected with peptide-HRP conjugate; format: binding; conditions: same peptide as Ag and as HRP conjugate (1:100)
Protocol: In peptide 147-5, the N-terminal glycine was added to function as a spacer group, while the arginine in position 2 was added to enhance the solubility of the peptide in aqueous buffers. Both of these peptides were evaluated for their ability to be recognized by HIV-1 group O serum samples in an antibody capture format. In general, in such an assay, a peptide is bound to a solid phase and bivalent antibody presents in a sample binds to the peptide linked thereto. Bound antibody is subsequently detected using a conjugate made of the peptide in question coupled to horseradish peroxidase. The peptide-HRP conjugate binds to antibody which in turn is bound to the solid phase linked peptide. Methods suitable for preparing such conjugates may be found readily in the scientific literature and are well known to those versed in the art.
Microwell plates were pre-coated with either peptide 147-4 or 147-5. A dilution of a serum sample was then incubated for 1 hour at 37° C., after which the plate was washed extensively. A 1:100 dilution of either peptide 147-4 or 147-5 conjugated to HRP was then added and allowed to incubate for an additional hour at 37° C. Following this incubation, the plates were again thoroughly washed. The presence of bound conjugate was detected by addition of substrate for HRP (O-phenylenediamine) and H2O2.
The peptides were evaluated for their ability to be recognized by anti-HIV-1 group O antibodies present in human serum from infected individuals. All group O samples were confirmed to be positive for HIV-1 group O by reverse transcriptase-polymerase chain reaction (RT-PCR) amplification of viral gp41 sequences using O-specific primers. The identity of the PCR product was further confirmed by DNA sequencing.

[2] = tested on: antibodies to HIV-1 group O; assay: Chemiluminescent ELISA: serially diluted peptide on streptavidin-coated wells, serum ODS007b 1:60, anti-human IgG:HRP, luminol; format: binding; conditions: serum ODS007b 1:60
Protocol: To compare the performance of peptide 147 to another genuine group O sequence, the peptide corresponding to the ANT70 sequence was synthesized (peptide 80). Peptides 147 and 80 were dissolved at the same concentration, serially diluted, and bound to streptavidin-coated wells. A 1:60 dilution of serum sample ODS007b (see Table 3) was added to all wells and incubated. After washing, an anti-human IgG:HRP conjugate was added, incubated, and the wells again thoroughly washed. In this case, a chemiluminescent substrate was used, consisting of luminol and a peracid salt. The emitted light was quantified using a luminometer. The results are tabulated in Table 4 and shown graphically in FIG. 2.

group O antibody = assay: ELISA with recombinant antigen coated at 0.5 μg/ml, group O sera, HRP-labeled mouse anti-human IgG; format: binding
Protocol: Performance of group M/group O “mosaic” constructs for group O antibody detection. The protein expressed as described was coated at a concentration of 0.5 μg/ml into the wells of microtiter plates for evaluation. Following coating of the protein, any remaining binding sites on the plastic were block with bovine serum albumin. Dilutions of group O sera were then tested for their ability to recognize the recombinant antigen. Bound antibodies were detected by incubation with HRP-labeled mouse anti-human IgG conjugate, and the bound conjugate was subsequently detected by addition of OPD and H2O2.

type B sample = assay: ELISA with recombinant antigen coated at 0.5 μg/ml, type B sample; format: binding, human

In the case of “EQQRLNSWGCKGRIICYTSARWH (HIV Consensus) [peptide 147-4, variant of peptide 147]”, the “Optical Density (OD)492” value ([1]; negative control) is reported as 0.010 OD, the “Optical Density (OD)492” value ([1]; sample ODS001 (1:200)) is reported as greater than 2.500 OD and the “Optical Density (OD)492” value ([1]; sample ODS002 (1:175)) is reported as 0.785 OD. The “Optical Density (OD)492” value ([1]; sample ODS006 (1:100)) was 0.133 OD and the “Optical Density (OD)492” value ([1]; sample ODS007 (1:1,500)) was 0.241 OD.

Work on “NQQLLSLWGCKGKLVCYTSVKWN (Human immunodeficiency virus type 1) [peptide 80, reference compound]” yielded a luminescent units ([2]; peptide 0.020 ug/ml) of 0.387 luminescent units, a luminescent units ([2]; peptide 0.039 ug/ml) of 0.376 luminescent units and a luminescent units ([2]; peptide 0.078 ug/ml) of 0.621 luminescent units. It also gave a luminescent units ([2]; peptide 0.156 ug/ml) of 1.288 luminescent units, a luminescent units ([2]; peptide 0.313 ug/ml) of 2.294 luminescent units and a luminescent units ([2]; peptide 0.625 ug/ml) of 2.854 luminescent units. It also gave a luminescent units ([2]; peptide 1.250 ug/ml) of 2.908 luminescent units and a luminescent units ([2]; peptide 2.500 ug/ml) of 1.821 luminescent units.

“GRETLMQDQQRLNSWGCKGRIICYTSARWH (HIV Consensus) [peptide 147-5, longer variant of peptide 147 with N-terminal glycine spacer and arginine to enhance solubility]” was tested, and the “Optical Density (OD)492” value ([1]; negative control) was 0.022 OD, the “Optical Density (OD)492” value ([1]; sample ODS001 (1:200)) was greater than 2.500 OD and the “Optical Density (OD)492” value ([1]; sample ODS002 (1:175)) was 1.343 OD. The “Optical Density (OD)492” value ([1]; sample ODS006 (1:100)) was 0.266 OD and the “Optical Density (OD)492” value ([1]; sample ODS007 (1:1,500)) was 0.316 OD.

B1: DHFR-hES-MH: truncated dihydrofolate reductase fusion, mosaic group M/group O gp41 recombinant antigen with myc sequence and his6 tail (protein)
chain: MRGSGIMVRPLNSIVAVSQNMGIGKNGDLPWPPLRNEFKYFQRMTTTSSVEGKQNLVIMGRKTWFSIPEKNRPLKDRINIVLSRELKEPPRGAHFLAKSLDDALRLIEQPELASKVDMVWIVGGSSVYQEAMNQPGHLRLFVTRIMQEFESDTFFPEIDLGKYKLLPEYPGVLSEVQEEKGIKYKFEVYEKKGSRSARLLLSGIVQQQNNLLRAIEAQQHMLQLTAWGIKQLRARLQALETLMQNQQRLNSWGCKGRIICYTSARWHASWSNKSLEDIWDNMTWMQWDQQVNNVSSIIYDKILEAQDQQEENVRELLELDKWASLWNWFDITNWLWYIKIFIMIVGPEQKLISEEDLNSAVDHHHHHH
modifications: HIV Consensus
With B1 the OD492 (group O antibody; sample ODS001 (dilution)) was 1.179 OD, the OD492 (group O antibody; sample ODS002 (dilution)) was 1.323 OD and the OD492 (group O antibody; sample neg. control 1) was −0.061 OD. The OD492 (type B sample) was 0.685 OD.
